Our source for the inhibition, IC50 and Activity values is ChEMBL document CHEMBL5107993, “Design, synthesis and in vitro biological evaluation of marine phidianidine derivatives as potential anti-inflammatory agents” (Bioorg Med Chem, 2022).

Assay [1] can be described thus: Inhibition of IL-17A production in PMA/ionomycin-stimulated mouse EL4 cells at 20 uM measured by ELISA relative to control. Type of assay: functional.
Assay [2] in a line: Inhibition of IL-17A production in PMA/ionomycin-stimulated mouse EL4 cells at 10 uM measured by ELISA relative to control. Type of assay: functional. A general note: An ELISA detects its analyte on a solid surface through an enzyme-linked reagent.
Assay [3] can be described thus: Inhibition of IL-17A production in PMA/ionomycin-stimulated mouse EL4 cells measured by ELISA. Type of assay: functional, cell-based.
Assay [4] has as its system EL4. In words: Inhibition of IL-17A production in PMA/ionomycin-stimulated mouse EL4 cells at 2 to 10 uM measured […]. Type of assay: functional, cell-based. The note with it: dose 2-10 µM, DDE = dose-dependent effect.
The test system of assay [5] is EL4. As to the kind of experiment: Inhibition of IL-17A mRNA expression in PMA/ionomycin-stimulated mouse EL4 cells at 10 uM measured by qRT-PCR method. Type of assay: functional, cell-based. A general note: Quantitative PCR measures a nucleic acid by following its amplification.
The subject of assay [6] is EL4. In words: Inhibition of IL-17A production in PMA/ionomycin-stimulated mouse EL4 cells at 2 to 10 uM measured by ELISA. Type of assay: functional, cell-based. The following applies: dose 2-10 µM, DDE = dose-dependent effect.
The subject of assay [7] is EL4. As to the kind of experiment: Inhibition of IL-17F mRNA expression in PMA/ionomycin-stimulated mouse EL4 cells at 10 uM measured by qRT-PCR method. Type of assay: functional, cell-based.
For assay [8], the system named is EL4. As to the kind of experiment: Downregulation ofp-STAT3 (Y705) expression in PMA/ionomycin-stimulated mouse EL4 cells measured by western blot analysis. Type of assay: functional, cell-based. A general note: A western blot detects proteins with antibodies after separation by electrophoresis.
Assay [9] deals with Th17. As to the kind of experiment: Inhibition of human Th17 cells differentiation in CD4+ve T cells assessed as decrease in IL-17A production at 2 uM measured by ELISA. Type of assay: functional, cell-based.
In assay [10] the test system is Th17. In words: Inhibition of human Th17 cells differentiation in CD4+ve T cells assessed as decrease in IL-17A mRNA expression at 2 uM measured by qRT-PCR method. Type of assay: functional, cell-based.

Molecules are shown by their SMILES. Activity calls are given as the source filed them. No cut-off for these calls is given here.

As for `O=S(=O)(c1ccccc1)N(CC(F)(F)F)c1ccc(C(O)(C(F)(F)F)C(F)(F)F)cc1` [T091317], at 20 µM the inhibition in [1] was 52.7%.

Compound `CN(C)CCNc1ccc(-c2noc(-c3ccccc3)n2)cc1` came in with an inhibition at 20 µM in [1] of 22.9%.

`CN(C)CCNc1ccc(-c2noc(C34CC5CC(CC(C5)C3)C4)n2)cc1` yielded an inhibition at 10 µM in [2] of 39.6%.

On to `Nc1ccc(-c2noc(Cc3c[nH]c4ccccc34)n2)cc1`, for which the inhibition at 10 µM in [2] came to 6.4%.

For the compound `CC(=O)NCCNc1ccc(-c2noc(Cc3c[nH]c4ccccc34)n2)cc1`, the inhibition at 10 µM in [2] is 31%.

The compound `COc1cc(-c2nc(-c3ccc(NCCN(C)C)cc3)no2)cc(OC)c1OC` had an IC50 in [3] of 5.29 µM. Moreover, the inhibition result with EL4 [4] and in the assay with EL4 [6] was “Dde” in each case. Further, the inhibition result in the assay on EL4 [5] and with EL4 [7] was “Active” throughout. Moreover, in assay [2], the inhibition at 10 µM was 83.5%.

For the compound `N=C(N)NCCNc1ccc(-c2noc(Cc3c[nH]c4ccccc34)n2)cc1`, the inhibition at 10 µM in assay [2] amounted to 15.2%.

The compound `CN(C)CCNc1ccc(-c2noc(Cc3c[nH]c4ccccc34)n2)cc1` gave an IC50 in [3] of 7.73 µM. The outcome in the assay with EL4 [8] was Active. In addition, the inhibition result in the assay with EL4 [4] and in the assay with EL4 [6] was “Dde” throughout. Further, the inhibition entry with Th17 [9], in the assay on EL4 [5], in the assay with Th17 [10] and in the assay on EL4 [7] was “Active” each time. In addition, the inhibition at 10 µM in assay [2] was determined as 78.7%.

On to `CN(C)CCNCc1nc(Cc2c[nH]c3ccccc23)no1`, for which the inhibition at 10 µM in [2] was 6.1%.

Consider `NCCNc1ccc(-c2noc(Cc3c[nH]c4ccccc34)n2)cc1`, for which testing at 10 µM in assay [2] gave an inhibition of 21.5%.

On to `NC12CCC(c3nc(Cc4c[nH]c5ccccc45)no3)(CC1)C2`, for which the inhibition at 10 µM in [2] was 3%.

Compound `c1ccc2c(Cc3noc(CNC4CCC4)n3)c[nH]c2c1` registered an inhibition at 10 µM in assay [2] of 5.8%.

In assay [2], `CS(=O)(=O)c1ccc(CNc2ccc(-c3noc(Cc4c[nH]c5ccccc45)n3)cc2)cc1` returned an inhibition at 10 µM of 10.3%.

On to `CS(=O)(=O)c1ccc(CNC23CCC(c4nc(Cc5c[nH]c6ccccc56)no4)(CC2)C3)cc1`, for which the inhibition at 10 µM in [2] is 8.1%.

In general, inhibition refers to the relative decrease from the control value, in per cent. By IC50 is commonly meant the midpoint of a concentration-inhibition curve.
